The text below walks through data of patent publication US8466162B2, “5-alkynyl-pyridines” (Boehringer Ingelheim International GmbH, priority 2011, dated 2013).

Assay [1] concerns MB453 cells. The assay can be described thus: alamarBlue MB453 cell assay (antiproliferative/cytotoxicity). Conditions: Homo sapiens; MDA MB 453 breast cancer cell line. Format: cell-based. An excerpt: (§1) The H460, MB453, U87, MCF7 and BT474 alamarBlue cell assays provide EC50 values indicative of the antiproliferative or cytotoxic effects of the compounds to respectively the H460 (human non small cell line cancer), MB-453 (breast cancer cell line), U87 (glioblastoma cell line), MCF7 (breast cancer cell line) and BT474 (breast cancer cell line). As known in the field, antiproliferative or cytotoxic effect against this cell lines would be expected to be indicative of activity in treating lung, breast and brain cancers. See R. Marone R et al. Biochim. Biophys. Acta. 2008 January; 1784(1):159-85. S. Yaguchi et al., J. Natl. Cancer Inst. 2006 Apr. 19; 98(8):545-56.
(§2) Method Type: Antiproliferative/Cytotoxicity
(§3) alamarBlue® is designed to provide a rapid and sensitive measure of cell proliferation and cytotoxicity in various human and animal cell lines. The assay is based on the reduction of alamarBlue in the reducing environment of living (metabolically active) cells. In the presence of added cytotoxic or antiproliferative compounds, the innate metabolic activity ceases.
(§4) AlamarBlue is soluble and stable in culture medium. Measurements are made fluorometrically by exciting at 530-560 nm and measuring emission at 590 nm. In reporting percent alamarBlue reduction by monitoring fluorescence, data are expressed as fluorescence emission intensity units as a function of time of incubation.
(§5) 3. Equipment • 96-well plates, flat bottom (Falcon, Cat. No.: 353072) • 96-well plates, U-shaped (Costar, Cat. No.: 3799) • CO2-Incubator • Microplate Reader, Spectramax Plus, Molecular Devices 4. Typical Procedure • Day 0: Seed 3000 BT-474 cells (IMDM/5% FCS, 1% NEAA, 1% Sodiumpyruvat) in 150 μl medium into a 96-well plate, flat bottom (include mediumblank). Incubate plates at 37° C. in a CO2 incubator overnight. • Day 1: Dilute compounds to a concentration 40 μM ->1:3 in medium, 10 dilution steps, in 96-well plates. • Add 50 μl per well of each dilution (total volume per well 200 μl; final conc. of cpds: 10 μM ->1:3). If required, test further dilutions. • All concentrations are tested in duplicates. • Controls: Cells w/o cpd. (+50 μl medium/DMSO). • Cells are incubated with compounds for 5-6 days. • Day 6 or 7: Add 25 μl of alamarBlue solution to each well and incubate for 8 hours at 37° C. Measure fluorescence by exciting at 530-560 nm and measuring emission at 590 nm 5. Evaluation • Subtract average value for medium blank from sample readings • Calculate EC50 using GraphPad Prism (Fifty)

Assay [2] relates to BT474 cells. The assay can be described thus: alamarBlue BT474 cell assay (antiproliferative/cytotoxicity). Type of assay: cell-based. To be noted: BT-474 human breast cancer cell line, 5-6 days incubation.
From the text: as §1, §2, §3, §4, §5

For assay [3], the system named is U87 cells. The assay can be described thus: alamarBlue U87 cell assay (antiproliferative/cytotoxicity). Type of assay: cell-based. To be noted: U-87MG human glioblastoma cells.
From the text: as §1, §2, §3, §4, §5

In assay [4] the test system is H460 cells. The assay can be described thus: alamarBlue H460 cell assay (antiproliferative/cytotoxicity). Type of assay: cell-based. Conditions: NCI-H460; H460 human lung carcinoma cells.
From the text: as §1, §2, §3, §4, §5

The target of assay [5] is T1, PI3Kalpha (Homo sapiens, UniProt P42336).
T1 construct: His (N); made in house; host or cells: SF9 insect cells (baculovirus co-infection)
The assay can be described thus: Inhibition of PI3Kalpha-induced PIP-2 phosphorylation (filter-binding assay, 33P-ATP). Type of assay: biochemical. Conditions: PI3 Kinase alpha (p85alpha/His-p110alpha), 1 μM ATP; read-out: IC50 PI3Kα. How it is done:
Biological Methods Inhibition of PI3Kalpha-Induced PIP-2 Phosphorylation
See also J. A. Engelman, Nature Reviews Cancer, 2009, 9, 550-562; A. Carnero, Expert Opin. Investig. Drugs, 2009, 18, 1265-1277 and P. Liu et al., Nature Reviews Drug Discovery, 2009, 8, 627-64.
Method Type: Filter-Binding-Assay
Aliquoted in desired amounts and stored at −80° C. […] Assay Procedure
The substrate-containing lipid vesicles are dissolved to a concentration of 0.637 mg lipid blend/ml assay buffer (with BSA, freshly added) in 50 ml Falcon ->keep on ice, followed by ultrasonication (pulse of 15 sec followed by a pause of 10 sec, 4×). Compounds are serially diluted in assay buffer+6% DMSO and 10 μl of each dilution is added per well of a 96-well plate (compounds are tested in duplicates) and mixed with 30 μl of the lipid vesicles containing PDGFR-Peptide (0.5 μM final) and PI3K alpha (25 ng/well final). The mixture is then incubated for 20 minutes at room temperature.
Subsequently, 20 μl of assay buffer containing 3 μM cold ATP and 0.5 μCi/20 μl 33P-ATP are added. The plates are then incubated at room temperature for 120 minutes (shaking with 300 rpm).
The reaction mix is transferred onto filter plates using “filtermate harvester” from Packard: filter plates are rinsed with PBS, then the reaction mix is filtered onto the filter plate, washed 5 times with PBS and are allowed to dry for 30-60 minutes at 50° C. The plate bottom is sealed with Perkin Elmer white adhesive foil and 25 μl/well Microscint0 are added, the top is covered with transparent adhesive foil and the plate is measured with Wallac Trilux 1450 Microbeta Counter.
As positive control serve wells containing vehicle controls (1% DMSO in assay buffer), showing non-inhibited kinase activity (high values). Wells containing assay buffer instead of enzyme can serve as control for background activity (low values).
Calculate IC50 values using the Smiley program (based on GrapPad Prism)

Assay [6] relates to MCF7 cells. The assay can be described thus: alamarBlue MCF7 cell assay (antiproliferative/cytotoxicity). Conditions: MCF7 human breast cancer cell line. Type of assay: cell-based.
From the text: as §1, §2, §3, §4, §5
A general note: The colour change of resazurin is a common sign of viable cells or microbes.

T1 sequence (P27986 whole entry): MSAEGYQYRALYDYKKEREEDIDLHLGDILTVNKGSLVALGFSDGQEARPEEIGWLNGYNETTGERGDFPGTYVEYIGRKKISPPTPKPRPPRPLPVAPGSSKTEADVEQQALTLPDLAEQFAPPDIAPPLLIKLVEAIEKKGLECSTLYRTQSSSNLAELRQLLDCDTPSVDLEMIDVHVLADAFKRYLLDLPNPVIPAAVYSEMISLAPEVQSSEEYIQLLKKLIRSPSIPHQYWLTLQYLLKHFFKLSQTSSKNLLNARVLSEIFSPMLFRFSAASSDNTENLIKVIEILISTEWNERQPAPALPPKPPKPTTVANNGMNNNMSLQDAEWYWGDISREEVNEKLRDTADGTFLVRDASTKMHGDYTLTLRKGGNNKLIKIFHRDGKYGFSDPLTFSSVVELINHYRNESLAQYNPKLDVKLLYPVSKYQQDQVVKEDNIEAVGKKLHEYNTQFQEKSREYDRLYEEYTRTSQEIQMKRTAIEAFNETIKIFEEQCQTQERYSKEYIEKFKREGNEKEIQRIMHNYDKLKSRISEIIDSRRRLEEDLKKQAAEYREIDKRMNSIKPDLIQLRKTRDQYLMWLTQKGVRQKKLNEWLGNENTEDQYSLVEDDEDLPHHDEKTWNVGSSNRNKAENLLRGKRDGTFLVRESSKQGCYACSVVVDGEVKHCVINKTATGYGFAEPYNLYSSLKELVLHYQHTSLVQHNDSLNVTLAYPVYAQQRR
T1 sequence (P42336 whole entry): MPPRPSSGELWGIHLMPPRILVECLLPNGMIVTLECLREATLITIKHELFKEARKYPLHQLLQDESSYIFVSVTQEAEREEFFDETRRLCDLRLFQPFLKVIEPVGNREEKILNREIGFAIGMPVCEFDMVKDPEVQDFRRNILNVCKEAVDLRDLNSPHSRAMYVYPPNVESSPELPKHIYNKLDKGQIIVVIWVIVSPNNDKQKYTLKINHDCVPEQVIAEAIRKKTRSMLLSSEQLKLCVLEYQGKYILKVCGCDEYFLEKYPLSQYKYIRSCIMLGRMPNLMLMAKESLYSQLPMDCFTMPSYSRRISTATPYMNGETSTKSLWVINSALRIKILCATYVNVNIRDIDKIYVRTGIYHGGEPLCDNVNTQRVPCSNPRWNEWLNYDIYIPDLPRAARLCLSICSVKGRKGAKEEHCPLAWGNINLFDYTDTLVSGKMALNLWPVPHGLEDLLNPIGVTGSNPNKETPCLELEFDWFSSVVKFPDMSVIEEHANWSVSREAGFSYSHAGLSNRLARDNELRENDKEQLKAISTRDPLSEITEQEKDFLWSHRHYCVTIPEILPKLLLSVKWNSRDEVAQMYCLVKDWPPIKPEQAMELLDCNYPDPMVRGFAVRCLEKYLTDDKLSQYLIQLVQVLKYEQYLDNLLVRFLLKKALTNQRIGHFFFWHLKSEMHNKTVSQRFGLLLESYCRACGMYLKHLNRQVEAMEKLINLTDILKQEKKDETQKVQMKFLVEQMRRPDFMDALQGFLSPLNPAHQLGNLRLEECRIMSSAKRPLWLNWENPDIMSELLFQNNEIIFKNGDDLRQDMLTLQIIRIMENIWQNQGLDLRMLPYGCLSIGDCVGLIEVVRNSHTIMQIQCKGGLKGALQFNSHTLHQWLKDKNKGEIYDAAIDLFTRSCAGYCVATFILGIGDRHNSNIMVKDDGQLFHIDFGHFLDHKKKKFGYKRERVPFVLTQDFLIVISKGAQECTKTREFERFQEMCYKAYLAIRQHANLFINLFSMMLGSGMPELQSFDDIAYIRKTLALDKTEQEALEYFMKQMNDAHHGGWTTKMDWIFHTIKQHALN

In the case of `CCc1ccc(S(=O)(=O)Nc2cc(C#Cc3c(CC)ncnc3-c3ccnc(C)c3)cnc2C)cc1` [Example 100, 4-Ethyl-N-{5-[4-ethyl-6-(2-methyl-pyridin-4-yl)-pyrimidin-5-ylethynyl]-2-methyl-pyridin-3-yl}-benzenesulfonamide], the EC50 – broadly, the concentration at which the effect is half-maximal – in assay [1] was 746 nM; in assay [2], 733 nM; in assay [3], 819 nM; in assay [4] it was 558 nM. Besides, in assay [5], the IC50 (in general, the concentration that gives 50% inhibition) turned out to be 5 nM.
Turning to `CCc1ncnc(-c2ccnc(C)c2)c1C#Cc1cnc(C)c(NS(=O)(=O)c2ccc(C(C)(C)C)cc2)c1` [Example 99, 4-tert-Butyl-N-{5-[4-ethyl-6-(2-methyl-pyridin-4-yl)-pyrimidin-5-ylethynyl]-2-methyl-pyridin-3-yl}-benzenesulfonamide], the EC50 in assay [1] was found to be 2930 nM; in assay [2] it was 4970 nM; in assay [3] it was 2420 nM; in assay [4], 2490 nM. Besides, the concentration for half-maximal inhibition (IC50) in assay [5] is 11 nM.
On to `CCc1ncnc(-c2ccnc(C)c2)c1C#Cc1cnc(C)c(NS(=O)(=O)c2cc(C)ccc2OC)c1` [Example 102, N-{5-[4-Ethyl-6-(2-methyl-pyridin-4-yl)-pyrimidin-5-ylethynyl]-2-methyl-pyridin-3-yl}-2-methoxy-5-methyl-benzenesulfonamide], for which the EC50 in assay [1] turned out to be 146 nM; in assay [2], 149 nM; in assay [3] it was 319 nM; in assay [4] it was 104 nM. Also, the half-inhibitory concentration (IC50) in assay [5] turned out to be 1 nM.
For the compound `CCc1ncnc(-c2ccc(C(=O)N3CCN(C)CC3)c(F)c2)c1C#Cc1cnc(C)c(NS(C)(=O)=O)c1` [Example 81, N-(5-{4-Ethyl-6-[3-fluoro-4-(4-methyl-piperazine-1-carbonyl)-phenyl]-pyrimidin-5-ylethynyl}-2-methyl-pyridin-3-yl)-methanesulfonamide], the EC50 in assay [6] came out at 301 nM; in assay [2] it was 477 nM; in assay [4] it was 2350 nM. Further, in assay [5], the IC50 was 3 nM.
For `CCc1nc(N)nc(-c2cccc(C#N)c2)c1C#Cc1cnc(C)c(NS(=O)(=O)c2ccc(F)cc2F)c1` [Example 34, N-{5-[2-Amino-4-(3-cyano-phenyl)-6-ethyl-pyrimidin-5-ylethynyl]-2-methyl-pyridin-3-yl}-2,4-difluoro-benzenesulfonamide], the half-maximal effective concentration (EC50) in assay [6] was 17 nM; in assay [1], 174 nM; in assay [2], 107 nM; in assay [4], 147 nM. The half-inhibitory concentration (IC50) in assay [5] is 0.9 nM.
As to `CCc1nc(N)nc(-c2ccc(C3CC3)nc2)c1C#Cc1cnc(C)c(NS(C)(=O)=O)c1` [Example 13, N-{5-[2-Amino-4-(6-cyclopropyl-pyridin-3-yl)-6-ethyl-pyrimidin-5-ylethynyl]-2-methyl-pyridin-3-yl}-methanesulfonamide], the 50% effective concentration (EC50) was determined as 24 nM in assay [6], 132 nM in assay [2] and 141 nM in assay [4]. In addition, in assay [5], the IC50 amounted to 0.74 nM.
Taken in the same sequence, the figures for `COc1ncc(C#Cc2c(C)nc(N)nc2-c2ccnc(C)c2)cc1NS(=O)(=O)c1ccc(F)cc1F` [Example 22, N-{5-[2-Amino-4-methyl-6-(2-methyl-pyridin-4-yl)-pyrimidin-5-ylethynyl]-2-methoxy-pyridin-3-yl}-2,4-difluoro-benzenesulfonamide] were 3 nM, 29 nM, 13 nM and 0.36 nM.
For `COc1ncc(C#Cc2c(C)nc(N)nc2-c2ccnc(C)c2)cc1NS(C)(=O)=O` [Example 21, N-{5-[2-Amino-4-methyl-6-(2-methyl-pyridin-4-yl)-pyrimidin-5-ylethynyl]-2-methoxy-pyridin-3-yl}-methanesulfonamide], the values for the EC50 in assay [6], in assay [2] and in assay [4] were 22 nM, 295 nM and 87 nM, respectively. Moreover, in assay [5], the IC50 turned out to be 2 nM.
With `CCc1ncnc(-c2cccc(CN(C)C)c2)c1C#Cc1cnc(C)c(NS(=O)(=O)c2ccc(F)cc2F)c1` [Example 30, N-{5-[4-(3-Dimethylaminomethyl-phenyl)-6-ethyl-pyrimidin-5-ylethynyl]-2-methyl-pyridin-3-yl}-2,4-difluoro-benzenesulfonamide], the EC50 was found to be 77 nM in assay [6], 188 nM in assay [1], 108 nM in assay [2] and 347 nM in assay [4]. Further, the half-maximal inhibitory concentration (IC50) in assay [5] amounted to 2 nM.
Regarding `CCc1nc(N)nc(-c2ccc(C)nc2)c1C#Cc1cnc(C)c(NS(C)(=O)=O)c1` [Example 14, N-{5-[2-Amino-4-ethyl-6-(6-methyl-pyridin-3-yl)-pyrimidin-5-ylethynyl]-2-methyl-pyridin-3-yl}-methanesulfonamide], the 50% effective concentration (EC50) amounted to 16 nM in assay [6], 89 nM in assay [2] and 305 nM in assay [4]. Further, in assay [5], the half-inhibitory concentration (IC50) stood at 1 nM.
In the case of `CNC(=O)c1ccc(-c2nc(N)nc(C)c2C#Cc2cnc(C)c(NS(C)(=O)=O)c2)cc1Cl` [Example 25, 4-[2-Amino-5-(5-methanesulfonylamino-6-methyl-pyridin-3-ylethynyl)-6-methyl-pyrimidin-4-yl]-2-chloro-N-methyl-benzamide], the EC50 in assay [6] worked out at 122 nM; in assay [2], 231 nM; in assay [4] it was 376 nM. In assay [5], the 50% inhibitory concentration (IC50) was 3 nM.
Consider `CCc1ncnc(-c2cccc(C#N)c2)c1C#Cc1cnc(C)c(NS(=O)(=O)c2ccc(F)cc2F)c1` [Example 29, N-{5-[4-(3-Cyano-phenyl)-6-ethyl-pyrimidin-5-ylethynyl]-2-methyl-pyridin-3-yl}-2,4-difluoro-benzenesulfonamide], for which the concentration for a half-maximal effect (EC50) in assay [6] worked out at 83 nM; in assay [1], 258 nM; in assay [2] it was 282 nM; in assay [4] it was 255 nM. Moreover, the IC50 in assay [5] worked out at 0.92 nM.
In the case of `CCc1nc(N)nc(-c2ccnc(C)c2)c1C#Cc1cnc(C)c(NS(C)(=O)=O)c1` [Example 15, N-{5-[2-Amino-4-ethyl-6-(2-methyl-pyridin-4-yl)-pyrimidin-5-ylethynyl]-2-methyl-pyridin-3-yl}-methanesulfonamide], the EC50 was 40 nM in assay [6], 107 nM in assay [2] and 294 nM in assay [4]. Moreover, in assay [5], the IC50 worked out at 0.95 nM.
On to `CCc1nc(N)nc(-c2ccc(C(=O)N3CCN(C)CC3)c(F)c2)c1C#Cc1cnc(C)c(NS(C)(=O)=O)c1` [Example 82, N-(5-{2-Amino-4-ethyl-6-[3-fluoro-4-(4-methyl-piperazine-1-carbonyl)-phenyl]-pyrimidin-5-ylethynyl}-2-methyl-pyridin-3-yl)-methanesulfonamide], for which the results for the half-maximal effective concentration (EC50) in assay [6], in assay [2] and in assay [4] were 194 nM, 511 nM and 2270 nM, respectively. For the same compound, the IC50 in assay [5] amounted to 1 nM.
